The values below are quoted from earlier work in US10653698B2, “Methods of improving myocardial performance in Fontan patients using udenafil compositions” (priority 2014, dated 2020).

Series [1] deals with children and young adults with single-ventricle physiology after the Fontan operation. The note with it: Shabanian et al. 2013; cited from earlier work.
For series [2], the system named is patients with Fontan circulation. The note with it: short term, once daily dosing; cited from earlier work.

With `CCCc1nn(C)c2c(=O)[nH]c(-c3cc(S(=O)(=O)N4CCN(C)CC4)ccc3OCC)nc12` [sildenafil], in series [1], the ventricular systolic elastance entry is “increased” and the ventriculo-arterial coupling result is listed as “improved”.

As for `CN1CC(=O)N2[C@H](c3ccc4c(c3)OCO4)c3[nH]c4ccccc4c3C[C@@H]2C1=O` [tadalafil], in series [2], the exercise capacity result is given as “unchanged”; the “ventilatory efficiency and oxygen saturation” value is given as “improved”.
